Patent US11690838B2, “Therapeutic agent for fibrosis” (TAIHO PHARMACEUTICAL CO., LTD., priority 2015, dated 2023)

System: Bleomycin-Induced Mouse Pathology (Lung Fibrosis) Model
Test: Suppression effect on bleomycin-induced mouse pathology (lung fibrosis) model
Format: in vivo
Settings: C57BL mice, bleomycin intratracheal, every day for 35 days; for hydroxyproline amount of lung tissues compared to the control group (pathological condition): FIG. 1; for score of abnormal accumulation of a fibrous tissue in lung tissues (Ashcroft's method) compared to the control group: FIG. 2
Description: Test Example 1: Suppression Effect on Bleomycin-Induced Mouse Pathology (Lung Fibrosis) Model
Mice (C57BL, 6 weeks old) were anesthetized by intraperitoneally administrating pentobarbital (50 mg/kg/day), and then bleomycin (20 μg/25 μL per mouse) was intra-tracheally sprayed by a sprayer. A week later, the mice were anesthetized by inhalation of isoflurane, 0.2 mL of blood was taken from the eye orbit of the mice. The blood level of a surfactant protein-D (SP-D) was measured. The mice were divided into groups (9 mice) such that the groups have an equal average SP-D value.
The compound of the present invention was orally administered at each of doses of 100 and 200 mg/kg/day, every day for 35 days. In order to confirm whether a pathological model was established, an untreated group (Normal group) and a Sham group were set up. To the mice of the Sham group, physiological saline was intratracheally sprayed in place of bleomycin. The next day after completion of the final administration, the mice were anesthetized by inhalation of isoflurane and euthanized. Thereafter, the lungs were excised out and subjected to pathological analysis for tissues. Abnormal accumulation of a fibrous tissue was evaluated and the amounts of hydroxyproline in the tissues were measured. The abnormal accumulation of a fibrous tissue was evaluated by using Ashcroft's method (J Clin Pathol 1988; 41: 467-470).
The hydroxyproline amounts of lung tissues of individual groups are shown in FIG. 1 and scores of abnormal accumulation of a fibrous tissue in the lung tissues are shown in FIG. 2. […] From this, it was determined that abnormal accumulation of a fibrous tissue in the lung tissue in mice was induced by bleomycin treatment and pathological models are established.

CNC(=O)c1cc2c(Oc3ccc(NC(=S)NC(=O)Cc4ccccc4)cc3F)ccnc2cc1OC [the compound of the present invention, 4-[2-Fluoro-4-[[[(2-phenylacetyl)amino]thioxomethyl]amino]-phenoxy]-7-methoxy-N-methyl-6-quinolinecarboxamide]
significantly low: hydroxyproline amount of lung tissues compared to the control group (pathological condition) (100 mg/kg/day orally) | score of abnormal accumulation of a fibrous tissue in lung tissues (Ashcroft's method) compared to the control group (100 mg/kg/day orally) | hydroxyproline amount of lung tissues compared to the control group (pathological condition) (200 mg/kg/day orally) | score of abnormal accumulation of a fibrous tissue in lung tissues (Ashcroft's method) compared to the control group (200 mg/kg/day orally)
